The record followed here is US20150175599A1, “FAAH Inhibitors” (Ironwood Pharmaceuticals, Inc., priority 2010, published 2015).

Some results are limits rather than exact numbers.

The first assay has as its target T1, FAAH (Rattus norvegicus, UniProt P97612).
T1 construct: For the assay of FAAH activity in rat brain membrane (RBM) homogenates; tissue Charles River (animals); host or cells: rat whole brain, membrane fraction
T1 sequence (P97612 1-579): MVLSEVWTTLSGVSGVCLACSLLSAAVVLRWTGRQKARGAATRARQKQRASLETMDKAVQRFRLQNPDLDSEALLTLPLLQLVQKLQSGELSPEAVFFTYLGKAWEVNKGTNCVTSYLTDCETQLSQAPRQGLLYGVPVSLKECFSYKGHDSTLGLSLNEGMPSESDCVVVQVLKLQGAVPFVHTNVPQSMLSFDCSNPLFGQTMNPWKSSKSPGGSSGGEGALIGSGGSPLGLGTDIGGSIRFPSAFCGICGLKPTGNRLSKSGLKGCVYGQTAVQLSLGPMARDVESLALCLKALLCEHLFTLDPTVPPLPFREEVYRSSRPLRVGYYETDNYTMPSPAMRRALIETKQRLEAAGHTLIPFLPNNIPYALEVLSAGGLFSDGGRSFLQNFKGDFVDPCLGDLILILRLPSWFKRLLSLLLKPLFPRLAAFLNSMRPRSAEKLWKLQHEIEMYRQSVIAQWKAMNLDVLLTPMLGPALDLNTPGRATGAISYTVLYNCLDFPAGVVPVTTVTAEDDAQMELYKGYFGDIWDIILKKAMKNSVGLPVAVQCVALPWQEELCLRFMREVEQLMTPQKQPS
As to the kind of experiment: FAAH inhibition, rat brain membrane homogenate assay. The assay is classed as biochemical.
Conditions: not given
In a few lines:
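Membranes from female CD rat brain (Tris pH 7.4/EDTA/MgCl2 resuspension), 7 μg protein, incubated 10 min at 37 °C with [3H]anandamide plus […] unlabelled AEA, 1 mg/mL fatty acid-free BSA, Tris-HCl pH 6.5, 1 mM EDTA, 1% DMSO. [3H]ethanolamine separated by chloroform/methanol extraction or charcoal filtration, scintillation-counted; IC50 derived.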
By IC50 is commonly meant the midpoint of a concentration-inhibition curve. Compound `COc1cc(NC(=O)C(=O)c2c(C)n(Cc3ncc(F)cc3F)c3ccc(C)cc23)ccn1` [Compound 88, 2-(1-((3,5-difluoropyridin-2-yl)methyl)-2,5-dimethyl-1H-indol-3-yl)-N-(2-methoxypyridin-4-yl)-2-oxoacetamide] returned an IC50 of under 100 nM.

The assay is the same for the next values; noted with them: rat brain homogenate; average activity; read-out: Rat Brain Extract FAAH IC50.
For `COc1cc(NC(=O)C(=O)c2c(C)n(Cc3ccc(Cl)cn3)c3ccccc23)ccn1` [Compound 68, 2-(1-((5-chloropyridin-2-yl)methyl)-2-methyl-1H-indol-3-yl)-N-(2-methoxypyridin-4-yl)-2-oxoacetamide], the IC50 is under 100 nM.

In the case of `COc1ccc(Cn2c(C)c(C(=O)C(=O)Nc3ccnc(OC)c3)c3cc(C)ccc32)nc1` [Compound 69, 2-(1-((5-methoxypyridin-2-yl)methyl)-2,5-dimethyl-1H-indol-3-yl)-N-(2-methoxypyridin-4-yl)-2-oxoacetamide], the IC50 was under 100 nM.

With `COc1cc(NC(=O)C(=O)c2c(C)n(Cc3ncc(Cl)cc3Cl)c3cc(Cl)c(OC)cc23)ccn1` [Compound 70, 2-(6-chloro-1-((3,5-dichloropyridin-2-yl)methyl)-5-methoxy-2-methyl-1H-indol-3-yl)-N-(2-methoxypyridin-4-yl)-2-oxoacetamide], the IC50 was under 100 nM.

Take `Cc1c(C(=O)C(=O)Nc2cccc(Cl)c2)c2cc(O)ccc2n1Cc1ccc(Cl)cc1` [Compound 71, 2-(1-(4-chlorobenzyl)-5-hydroxy-2-methyl-1H-indol-3-yl)-N-(3-chlorophenyl)-2-oxoacetamide]: the IC50 lay within 100 to 1000 nM.

With `COc1cc(NC(=O)C(=O)c2c(C)n(Cc3ccc(Cl)cc3)c3cc(F)c(OC)cc23)ccn1` [Compound 72, 2-(1-(4-chlorobenzyl)-6-fluoro-5-methoxy-2-methyl-1H-indol-3-yl)-N-(2-methoxypyridin-4-yl)-2-oxoacetamide], the IC50 is under 100 nM.

As to `COc1cc(NC(=O)C(=O)c2c(C)n(Cc3ccc(Cl)cc3)c3ccc(N)c(Cl)c23)ccn1` [Compound 73, 2-(5-amino-4-chloro-1-(4-chlorobenzyl)-2-methyl-1H-indol-3-yl)-N-(2-methoxypyridin-4-yl)-2-oxoacetamide], the 50% inhibitory concentration (IC50) lay within 100 to 1000 nM.

On to `COc1cc(NC(=O)C(=O)c2c(C)n(Cc3ccc(Cl)cc3)c3cc(C)c(OC)cc23)ccn1` [Compound 74, 2-(1-(4-chlorobenzyl)-5-methoxy-2,6-dimethyl-1H-indol-3-yl)-N-(2-methoxypyridin-4-yl)-2-oxoacetamide], for which the IC50 is under 100 nM.

Turning to `COc1cc(NC(=O)C(=O)c2c(C)n(Cc3ccc(Cl)cn3)c3ncc(C)cc23)ccn1` [Compound 75, (1-((5-chloropyridin-2-yl)methyl)-2,5-dimethyl-1H-pyrrolo[2,3-b]pyridin-3-yl)-N-(2-methoxypyridin-4-yl)-2-oxoacetamide], the IC50 is under 100 nM.

Consider `COc1cc(NC(=O)C(=O)c2c(C)n(Cc3ccc(Cl)cc3)c3ncc(C)cc23)ccn1` [Compound 76, 2-(1-(4-chlorobenzyl)-2,5-dimethyl-1H-pyrrolo[2,3-b]pyridin-3-yl)-N-(2-methoxypyridin-4-yl)-2-oxoacetamide], for which the IC50 was under 100 nM.

With `COc1ccc2c(c1)c(C(=O)C(=O)Nc1ccnc(OC)c1)c(C)n2Cc1ccccn1` [Compound 77, 2-(5-methoxy-2-methyl-1-(pyridin-2-ylmethyl)-1H-indol-3-yl)-N-(2-methoxypyridin-4-yl)-2-oxoacetamide], the IC50 was under 100 nM.

For `COc1cc(NC(=O)C(=O)c2c(C)n(Cc3ccc(Cl)cn3)c3cc(C)c(OC)cc23)ccn1` [Compound 95, 2-(1-((5-chloropyridin-2-yl)methyl)-5-methoxy-2,6-dimethyl-1H-indol-3-yl)-N-(2-methoxypyridin-4-yl)-2-oxoacetamide], the IC50 was under 100 nM.

Turning to `COc1ccc(Cn2c(C)c(C(=O)C(=O)Nc3ccnc(OC)c3)c3cc(OC)c(C)cc32)nc1` [Compound 96, 2-(5-methoxy-1-((5-methoxypyridin-2-yl)methyl)-2,6-dimethyl-1H-indol-3-yl)-N-(2-methoxypyridin-4-yl)-2-oxoacetamide], the IC50 was under 100 nM.

On to `COc1cc(NC(=O)C(=O)c2c(C)n(Cc3ncc(Cl)cc3F)c3cc(Cl)c(OC)cc23)ccn1` [Compound 97, 2-(6-chloro-1-((5-chloro-3-fluoropyridin-2-yl)methyl)-5-methoxy-2-methyl-1H-indol-3-yl)-N-(2-methoxypyridin-4-yl)-2-oxoacetamide], for which the IC50 was under 100 nM.

As for `COc1ccc(Cn2c(C)c(C(=O)C(=O)Nc3ccnc(OC)c3)c3cc(OC)c(Cl)cc32)nc1` [Compound 98, 2-(6-chloro-5-methoxy-1-((5-methoxypyridin-2-yl)methyl)-2-methyl-1H-indol-3-yl)-N-(2-methoxypyridin-4-yl)-2-oxoacetamide], the IC50 was under 100 nM.

Regarding `COc1cc(NC(=O)C(=O)c2c(C)n(Cc3ncc(Cl)cc3F)c3cc(F)c(OC)cc23)ccn1` [Compound 99, 2-(1-((5-chloro-3-fluoropyridin-2-yl)methyl)-6-fluoro-5-methoxy-2-methyl-1H-indol-3-yl)-N-(2-methoxypyridin-4-yl)-2-oxoacetamide], the IC50 was under 100 nM.

As to `COc1ccc2c(c1)c(C(=O)C(=O)Nc1ccnc(OC)c1)c(C)n2Cc1ncc(Cl)cc1OC` [Compound 100, 2-(1-((5-chloro-3-methoxypyridin-2-yl)methyl)-5-methoxy-2-methyl-1H-indol-3-yl)-N-(2-methoxypyridin-4-yl)-2-oxoacetamide], the IC50 was under 100 nM.

On to `COc1cc(NC(=O)C(=O)c2c(C)n(Cc3ncc(F)cc3F)c3cc(F)c(OC)cc23)ccn1` [Compound 101, 2-(1-((3,5-difluoropyridin-2-yl)methyl)-6-fluoro-5-methoxy-2-methyl-1H-indol-3-yl)-N-(2-methoxypyridin-4-yl)-2-oxoacetamide], for which the IC50 is under 100 nM.
